According to patent US20210213104A1, “GLUCAGON AND GLP-1 CO-AGONISTS FOR THE TREATMENT OF CHRONIC KIDNEY DISEASE AND DIABETIC KIDNEY DISEASE IN TYPE 2 DIABETES” (MEDIMMUNE LIMITED, priority 2020, published 2021):

How the values were obtained:
[1] = test system: subjects with T2DM and renal impairment; assay: Phase 2a: urine albumin:creatinine ratio (UACR); type: in vivo, human; conditions: for UACR Relative Change from Baseline to End of Dosing (vs. Placebo): subjects with mean UACR > 3 mg/mmol at baseline (micro- or macroalbuminuria), 1-exponential of fold change
Protocol: (§1) Cotadutide was titrated from 50 μg up to 300 μg and administered once daily by subcutaneous (SC) injection over 32 days.
(§2) Cotadutide was administered at 50 μg once daily for 4 days, followed by 100 μg daily for 7 days, 200 μg daily for 7 days, and 300 μg daily for 14 days (n=20). Placebo was administered one daily for 32 days (n=20). Cotadutide and placebo were administered in the morning. Dosing commenced following predose baseline vital signs, blood tests (including HbA1c), an electrocardiogram (ECG), body weight measurement, and bioimpedance spectroscopy (BIS). Subjects then returned for daily dosing or remained overnight locally until Day 5, and thereafter, had visits at weekly intervals until a maintenance dose of 300 μg was established. Thus, Cotadutide or placebo was administered at the study site by study personal for the first four doses and on site on Days 5, 12, 19, and 32. At all other times, subjects preformed dosing at home.
Mean urine albumin:creatinine ratio (UACR) was lower in the Cotadutide dose group compared to placebo from Day 19 until the end of dosing, and for 8 days into the follow-up period.

[2] = test system: diet induced obese (DIO) mice; assay: Hyperinsulinemic clamps in diet induced obese (DIO) mice; type: in vivo
Protocol: Following 28 days of daily dosing with Cotadutide (10 nmol/kg), Liraglutide (5 nmol/kg; GLP-1 agonist) or g1437 (5 nmol/kg; a Gcg analog), mice underwent continuous infusion of 4 mU/kg/min insulin and [3H]-glucose to assess glucose turnover. Tissue-specific glucose uptake was assessed using 14C-2-deoxyglucose.

brown adipose tissue = assay: [^18F]FDG uptake by PET imaging (separate study); type: in vivo, mice
From the text: Finally, glucose uptake was elevated in brown adipose tissue in Cotadutide treated mice, which was confirmed in a separate study of [^18F]FDG uptake by PET imaging.

[3] = test system: subjects with T2DM and renal impairment; assay: Phase 2a: fasting glucose blood test; type: in vivo, human; conditions: ITT; for Fasting Glucose LS Mean Change / Fasting Glucose Change from Baseline, Mean / Fasting Glucose Change from Baseline, Median / Fasting Glucose Difference in LS Mean Change (vs Placebo): Day 1 to Day 32; for Fasting Glucose LS Mean Change: ANCOVA
Protocol: as §1, §2
Blood samples were collected to evaluate blood glucose (fasting) and HbA1c levels.
Fasting glucose was measured from baseline (Day 1) to the end of treatment (Day 32). […] LS mean reduction of fasting glucose from baseline was more apparent in subjects in the Insulin Dose <20 U/day subgroup compared to Insulin Dose ≥20 U/day subgroup.

[4] = test system: subjects with T2DM and renal impairment; assay: Phase 2a: blood pressure and heart rate (ABPM and office-based); type: in vivo, human
From the text: After instruction, subjects set up and applied an ambulatory blood pressure monitoring (ABPM) device. The subjects were advised to undergo normal daily activities while wearing the cuff and to avoid any strenuous forms of activity, bathing, or showering while wearing the cuff. The subjects were advised to remain still during the measurement with the arm relaxed at heart level. During ABPM, systolic BP, diastolic BP, heart rate pressure, heart rate, and mean arterial pressure readings were recorded over a period of 24 hours.
Based on post-hoc analysis, ABPM measurements were as follows: mean change from baseline to Day 32: −1.15 mmHg vs 2.21 mmHg (systolic, Cotadutide vs Placebo) and 2.54 mmHg vs 1.84 mmHg (diastolic, Cotadutide vs Placebo). Increases in supine blood pressure from baseline were also observed after 32 days of treatment: 1.44 mmHg vs 8.69 mmHg (systolic, Cotadutide vs placebo) and 0.57 mmHg vs 3.40 mmHg (diastolic, Cotadutide vs placebo); however, these changes were also not clinically significant and were numerically greater in the placebo group.
Based on office-based measurement, increases in postural blood pressure difference were observed after 32 days of treatment: 8.9 mmHg vs 0 1 mmHg (systolic, Cotadutide vs placebo) and 0.8 mmHg vs 1 8 mmHg (diastolic, Cotadutide vs placebo); however, these changes were not clinically significant.
By Day 32, the LS mean change from baseline in pulse rate (office-based measure) was an increase of 14.13 bpm for subjects in the Cotadutide dose group and 3.14 bpm for subjects in the placebo dose group (p <0.001). […] Mean heart rate changes from baseline to Day 32 were numerically greater while asleep (13.06 bpm vs −2.28 bpm) compared to awake (10.78 bpm vs −0.80 bpm) for subjects on Cotadutide vs placebo, respectively.

[5] = subjects with mean UACR > 3 mg/mmol at baseline
[6] = subjects with mean UACR > 3 mg/mmol at baseline, ITT
[7] = office-based measurement, after 32 days

With `CCCCCCCCCCCCCCCC(=O)N[C@@H](CCC(=O)NCCCC[C@H](NC(=O)[C@H](CC(=O)O)NC(=O)[C@H](CO)NC(=O)[C@@H](NC(=O)[C@H](Cc1ccccc1)NC(=O)[C@@H](NC(=O)CNC(=O)[C@H](CCC(N)=O)NC(=O)[C@H](CO)NC(=O)[C@@H](N)Cc1c[nH]cn1)[C@@H](C)O)[C@@H](C)O)C(=O)N[C@@H](CO)C(=O)N[C@@H](CCC(=O)O)C(=O)N[C@@H](Cc1ccc(O)cc1)C(=O)N[C@@H](CC(C)C)C(=O)N[C@@H](CC(=O)O)C(=O)N[C@@H](CO)C(=O)N[C@@H](CCC(=O)O)C(=O)N[C@@H](CCCNC(=N)N)C(=O)N[C@@H](C)C(=O)N[C@@H](CCCNC(=N)N)C(=O)N[C@@H](CC(=O)O)C(=O)N[C@@H](Cc1ccccc1)C(=O)N[C@H](C(=O)N[C@@H](C)C(=O)N[C@@H](Cc1c[nH]c2ccccc12)C(=O)N[C@@H](CC(C)C)C(=O)N[C@@H](CCC(=O)O)C(=O)N[C@@H](C)C(=O)NCC(=O)NCC(=O)O)C(C)C)C(=O)O` [Cotadutide] as the compound, how does the “Urine Albumin/Creatinine, End of Dosing (Day 33), Mean” value ([1]; Total, ITT) read?
The value was 10.06 mg/mmol.

And the “Urine Albumin/Creatinine, End of Dosing (Day 33), Median” value ([1]; Total, ITT)?
Its value is 2.00 mg/mmol.

What about the “UACR LS Mean Change” value ([1]; baseline to Day 33, ANCOVA, Total, ITT) of the same compound?
The value was -3.05 mg/mmol.

What about the “UACR Change from Baseline, Mean” value ([1]; baseline to Day 33, Total, ITT) of the same compound?
Its value is -3.05 mg/mmol.

And the “UACR Change from Baseline, Median” value ([1]; baseline to Day 33, Total, ITT)?
Its value is -0.60 mg/mmol.

And the “UACR Difference in LS Mean Change (vs Placebo)” value ([1]; baseline to Day 33, Total, ITT)?
Its value is -5.07 mg/mmol.

And the “Fold Change in Log-Transformed UACR (vs. Placebo)” value ([1]; baseline to end of dosing, subjects with mean UACR > 3 mg/mmol at baseline)?
The value was −0.70.

What about the “UACR Geometric Mean (end of dosing relative to baseline)” value [1, 5] of the same compound?
Its value is 0.511.

What about the “UACR Geometric Mean Ratio (vs. Placebo)” value [1, 5] of the same compound?
The value was 0.4945.

What about the “UACR Relative Change from Baseline to End of Dosing (vs. Placebo)” value [1] of the same compound?
Its value is 50.6%.

What about the “UACR Relative Change from Baseline to End of Dosing (vs. Placebo)” value ([1]; listed as MEDI0382) of the same compound?
The value was 50.55%.

And the “Log-transformed UACR, End of Dosing (Day 33), Mean” value [1, 6]?
The value was 1.767.

What about the “Log-transformed UACR, End of Dosing (Day 33), Median” value [1, 6] of the same compound?
Its value is 1.253.

What about the insulin sensitivity [2] of the same compound?
The insulin sensitivity was “improves insulin sensitivity”.

And the “total insulin levels during the clamp” value ([2]; 4 mU/kg/min insulin infusion)?
The value was “remained lower”.

What about the “glucose uptake in brown adipose tissue” value ([2]; 14C-2-deoxyglucose) of the same compound?
The value was “elevated”.

And the “Fasting insulin compared with vehicle” value ([2]; 28 days daily dosing)?
Its value is “dramatically lower”.

What about the glucose disposal rate ([2]; clamp) of the same compound?
The glucose disposal rate was “increased”.

And the “glucose infusion rate to maintain euglycemia ˜130 mg/dL” value ([2]; clamp)?
The value was “significantly higher”.

What about the “[^18F]FDG uptake by PET imaging, brown adipose tissue” value (brown adipose tissue) of the same compound?
The value was “confirmed”.

And the “Fasting Glucose LS Mean Change” value ([3]; Insulin Dose < 20 U/day)?
The value was -32.24 mg/dL.

And the “Fasting Glucose LS Mean Change” value ([3]; Insulin Dose ≥ 20 U/day)?
Its value is -12.28 mg/dL.

What about the “Fasting Glucose LS Mean Change” value ([3]; Total) of the same compound?
The value was -19.55 mg/dL.

What about the “Fasting Glucose Change from Baseline, Mean” value (shortened to “Fasting Glucose Change … Mean”) ([3]; Insulin Dose < 20 U/day) of the same compound?
The value was -31.79 mg/dL.

What about the “Fasting Glucose Change from Baseline, Median” value ([3]; Insulin Dose < 20 U/day) of the same compound?
Its value is -39.64 mg/dL.

And the “Fasting Glucose Difference in LS Mean Change (vs Placebo)” value ([3]; Insulin Dose < 20 U/day)?
The value was -28.11 mg/dL.

What about the “Fasting Glucose Change … Mean” value ([3]; Insulin Dose ≥ 20 U/day) of the same compound?
Its value is -9.39 mg/dL.

And the “Fasting Glucose Change from Baseline, Median” value ([3]; Insulin Dose ≥ 20 U/day)?
The value was -9.01 mg/dL.

What about the “Fasting Glucose Difference in LS Mean Change (vs Placebo)” value ([3]; Insulin Dose ≥ 20 U/day) of the same compound?
The value was -15.02 mg/dL.

What about the “Fasting Glucose Change … Mean” value ([3]; Total) of the same compound?
The value was -17.64 mg/dL.

What about the “Fasting Glucose Change from Baseline, Median” value ([3]; Total) of the same compound?
Its value is -19.82 mg/dL.

What about the “Fasting Glucose Difference in LS Mean Change (vs Placebo)” value ([3]; Total) of the same compound?
The value was -20.15 mg/dL.

And the “Fasting Glucose, Day 32, Mean” value ([3]; Insulin Dose < 20 U/day)?
The value was 125.75 mg/dL.

And the “Fasting Glucose, Day 32, Median” value ([3]; Insulin Dose < 20 U/day)?
The value was 125.24 mg/dL.

What about the “Fasting Glucose, Day 32, Mean” value ([3]; Insulin Dose ≥ 20 U/day) of the same compound?
Its value is 159.03 mg/dL.

What about the “Fasting Glucose, Day 32, Median” value ([3]; Insulin Dose ≥ 20 U/day) of the same compound?
The value was 141.91 mg/dL.

And the “Fasting Glucose, Day 32, Mean” value ([3]; Total)?
Its value is 146.77 mg/dL.

What about the “Fasting Glucose, Day 32, Median” value ([3]; Total) of the same compound?
Its value is 139.66 mg/dL.

And the “Mean heart rate change from baseline to Day 32, asleep” value ([4]; ABPM)?
The value was 13.06 bpm.

And the “Mean heart rate change from baseline to Day 32, awake” value ([4]; ABPM)?
Its value is 10.78 bpm.

And the “LS mean change from baseline in pulse rate (office-based measure)” value ([4]; Day 32)?
Its value is 14.13 bpm.

And the “changes in blood pressure” value ([4]; after 32 days of treatment)?
The value was “no clinically or statistically significant changes”.

And the “supine diastolic blood pressure, increase from baseline” value ([4]; after 32 days of treatment)?
Its value is 0.57 mmHg.

What about the “supine systolic blood pressure, increase from baseline” value ([4]; after 32 days of treatment) of the same compound?
Its value is 1.44 mmHg.

And the “changes in blood pressure” value ([4]; after 32 days of treatment, listed as cotadutide)?
Its value is “no significant changes”.

What about the Pulse rate increase ([4]; by day 32, P<0.001) of the same compound?
The Pulse rate increase was 11 beats per minute.

And the “differences in heart rate from baseline” value ([4]; end of the study (Day 60))?
Its value is “no meaningful differences”.

What about the “increase in postural blood pressure difference, diastolic” value [4, 7] of the same compound?
The value was 0.8 mmHg.

What about the “increase in postural blood pressure difference, systolic” value [4, 7] of the same compound?
The value was 8.9 mmHg.

What about the “24-hour heart rate by ABPM, mean increase from baseline to Day 32” value ([4]; post-hoc analysis) of the same compound?
The value was 11.85 bpm.

What about the “ABPM diastolic blood pressure, mean change from baseline to Day 32” value ([4]; post-hoc analysis) of the same compound?
The value was 2.54 mmHg.

And the “ABPM systolic blood pressure, mean change from baseline to Day 32” value ([4]; post-hoc analysis)?
The value was −1.15 mmHg.
